The target in data set [1] is T1, ZIKV NS2B-NS3 protease (ZIKVpro, gZiPro) (Zika virus, UniProt A0A024B7W1).
T1 construct: The cDNA coding for residues 45–96 of ZIKV NS2B; the N terminus of NS3 (residues 1–177); poly-histidine tag (C); made in house; host or cells: E. coli BL21(DE3), pET28a (NcoI/XhoI)
The data set is described as follows: Octet bio-layer interferometry binding assay with biotinylated ZIKVpro (gZiPro). Conditions: for binding to ZIKVpro in Octet assay: compound 50 μM; for Response (Octet binding assay): compound 50 µM, biotinylated ZIKVpro, binding profile as nm shift. For orientation: Biolayer interferometry detects binding as a change in optical thickness at a sensor tip.
From the text: Intermolecular interactions between gZiPro and selected compounds were detected by using BLI technology on the ForteBio Octet Red system (Pall FortéBio, Inc, Menlo Park, USA). The biotinylated protein gZipro was immobilized onto super streptavidin biosensors (Pall FortéBio Inc.), and then blocked with biocytin (Sigma). […] Sensorgrams were double-referenced, corrected for solvent effects, and then fit using OctetRed user software (Pall FortéBio Inc.). The binding profile of each sample was summarized as an “nm shift” (the wavelength or spectral shift in nanometers), which represented the difference between the start and end of the kinetic cycle. Steady-state and kinetic responses were fit to a simple binding model to obtain values for association (Kon) and dissociation (Koff) rate constants and the equilibrium dissociation constant (Kd). The Langmuir’s 1:1 binding model was applied to fit the interferometry data.

Another data set deals with ZIKVpro. Conditions: 2017, read-out: IC50 against ZIKVpro, cited from earlier work.
Data set [2] concerns the target T2, ZIKV NS2B-NS3 protease (ZIKVpro) (Zika virus, UniProt A0A024B7W1).
T2 construct: The cDNA coding for residues 45–96 of ZIKV NS2B; the N terminus of NS3 (residues 1–177); poly-histidine tag (C); made in house; host or cells: E. coli BL21(DE3), pET28a (NcoI/XhoI)
The data set is described as follows: fluorescence-based ZIKVpro protease inhibition screening assay (Bz-nKKR-AMC substrate). Conditions: for pIC50: 150 nM ZIKVpro, 1 h preincubation at 37 °C, 50 μM Bz-nKKR-AMC; for inhibition at 20 µM: read-out: Inhibition Activity% (primary high-throughput screening). In kind it is biochemical.
Method: For initial screening, each compound was dissolved in dimethyl sulfoxide (DMSO) to obtain 20 mM stock solution. […] The reaction was started by addition of Bz-nKKR-AMC substrate at 50 µM and fluorescence readings were measured at 30 s intervals over 10 min using Enspire (Perkin Elmer, USA) at excitation wavelength(λex) at 360 nm and emission wavelength(λem) at 460 nm. Assays were carried out as triplicates at 37 °C.
The protease activity of the DMSO control was set as 100%. The protease activities with compounds were set as percentage of the DMSO control. Data was fitted using the log(inhibitor) vs. response - variable slope (four parameters) model within the graphpad prism 7.0 software.
Inhibition activity=100-[S–S0/C−C0]×100%
S: the RFUs of the test sample (enzyme, inhibitor, buffer, and substrate) after 10 min of reaction
S0: the RFUs of the tested samples at time zero.
C: the RFUs of the control (enzyme, buffer, and substrate) after 10 min of reaction
C0: the RFUs of the control at time zero

The next data set relates to dengue virus. On the set-up: method as in Constant et al., 2018. Conditions: ref Constant et al., 2018; read-out: EC50 of inhibiting viral growth; cited from earlier work.
A further data set concerns the target viral proteinase NS2B/3. On the set-up: method as in Constant et al., 2018. Conditions: ref Constant et al., 2018; read-out: IC50 of enzymatic activity of the viral proteinase; cited from earlier work.
In data set [3] the test system is ZIKV. Description: protection of Vero E6 cell viability against ZIKV-induced cytopathic effect (CCK-8). To be noted: Vero E6 cells. The class given is cell-based, Zika virus. The protocol: Cell viability was performed by Cell Counting Kit-8 (CCK-8) (Beyotime, China). Typically, 8×10^4 cells/ml Vero E6 cells were seeded in the wells of 96-well plate at 100 μl/well and grown for 24 h. The compound 1 μl was added to the cells, after which cells were infected with ZIKV at MOI of 0.05. Ribavirin and DMSO were used as positive and negative control, respectively. […] The absorbance at 450 nm was subsequently measured using EnSpire 2300 Multilable Reader (PerkinElmer). The inhibition rate of the tested compounds was calculated with the following equation:
Inhibition rate%=100-[ODtested compound−ODmock−infected cells/ODinfected cells−ODmock−infected cells]×100%
On the technique in general: Cytopathic effects are the visible damage that an infection or toxin causes in cultured cells.

The test system of data set [4] is ZIKV. Description: western blot of viral protein in ZIKV-infected U-87 MG cells. The class given is cell-based, Zika virus. To be noted: dose-dependent. For orientation: A western blot detects proteins with antibodies after separation by electrophoresis.
In data set [5] the test system is ZIKV. The data set is described as follows: qRT-PCR of viral RNA in ZIKV-infected Vero E6 cells. The class given is cell-based, Zika virus. To be noted: dose-dependent. The protocol:
To determine the viral RNA number by qRT-PCR, total intracellular RNAs were extracted from the infected cells (control and treated) by treatment with TRIzol reagent (Invitrogen, USA) according to the manufacturer’s protocol. The cDNA was synthesized using Primescript RT Master Kit (Takara, Japan). Level of viral RNA was determined by performing qRT-PCR analysis using SYBR premix Ex Taq II kit (Takara) according to the instructions. The primer sequences used for the Zika virus genes are 5’-[…]-3’ (forward) and 5’-[…]-3’ (reverse). For quantification, the 2^−ΔΔCt method was used to calculate the relative RNA levels against GAPDH.

Data set [6] deals with ZIKV polyprotein precursor cleavage by ZIKVpro. Description: western blot of viral polyprotein precursor processing in ZIKV-infected Vero E6 cells. The class given is cell-based, Zika virus. Conditions: especially at 6.25 µM. The protocol: (§1) Vero E6 cells were seeded at a density of 2×10^5 cells per well in 6-well plate. After overnight incubation, 2 µl DMSO (Sigma-Aldrich) or 2 µl chemical compounds were added to each well at the designated concentration. Then cells were infected with ZIKV at MOI of 0.05. Ribavirin and DMSO were used as positive and negative control, respectively. After a further incubation for 72 h at 37°C, cells were lysed with 100 μl of lysis buffer (50mM Tris, 150mM NaCl, 1% NP-40, 0.5% sodium deoxycholate, pH 7.4). Cell lysate was subjected to denaturing gel electrophoresis with 10% Bis-Tris Gel. The proteins were transferred onto PVDF membranes (Millipore, USA) and immunoblotted with indicated antibodies. The following antibodies were used for the detection of proteins: Anti-NS2B antibody (GTX133308, 1:1,000, GeneTex), Anti-NS3 antibody(GTX133320, 1:1,000, GeneTex), Anti-NS4A antibody (GTX133704, 1:1,000, GeneTex), Anti-prM antibody, Anti-β actin antibody (mAbcam 8224, 1:5000, Abcam) was used as a loading control. […]
(§2) Quantification of signals on Western blots was done using the Image pro 10 (Media cybernetics, USA) Imaging and Processing Analysis Software with signaling intensity normalized to loading control. […] Membranes were imaged and quantified in 800 nm channelsin the Odyssey Infrared Imaging System using Odyssey V3.0 software (LI-COR, Lincoln, NE).

Data set [7] concerns ZIKV. Description: western blot of ZIKV NS3 expression in infected Vero E6 cells. The class given is cell-based, Zika virus. Conditions: dose-dependent. The protocol:
as §1, §2

The subject of data set [8] is ZIKV. The data set is described as follows: time-of-drug-addition assay (qRT-PCR, Vero E6). The class given is cell-based, Zika virus. To be noted: ZP10 25 μM or antibody 0.1 μg/ml, Vero E6, 24 hpi. The protocol: For the pre-treatment group, Vero E6 cells were seeded 12-well plates (2.5×10^5 cells/well). […] Next, Vero E6 cells were washed with PBS once before the addition of mixture. The 600 μl mixture was added into cells for 1 h at 4°C. […] Infected cells were collected at 24 hpi. The cell lysate was collected for viral RNA copies measurement using qRT-PCR. DMSO was included as negative control. The experiments were performed in triplicate and repeated twice for confirmation.

The test system of a further data set is Vero E6 cells. Description: cytotoxicity in Vero E6 cells (CCK-8). Conditions: 0.3125~40 μM. The class given is cell-based, African green monkey.
The test system of data set [9] is CCCC[C@H](NC(=O)c1ccccc1)C(=O)N[C@@H](CCCCN)C(=O)N[C@@H](CCCCN)C(=O)N[C@@H](CCCNC(=N)N)C(=O)Nc1ccc2c(C)cc(=O)oc2c1. Description: purified protein, by the assay type. Conditions: other: substrate 5 to 320 µM, 150 nM protease, 37 °C, pH 7.5.
Method: Proteolytic activity of NS2B-NS3 protease was measured using benzoyl-norleucine-lysine-lysine-arginine 7-amino-4-methylcoumarine (Bz-nKKR-AMC). Bz-nKKR-AMC substrate with starting concentration of 300 μM was serially diluted two times in reaction buffer (50 mM Tris-HCl, pH 7.5, 150 mM NaCl) and added to 96-well black plate (Costar, USA) with 150 nM protein diluted in the same buffer. For kinetics measurements, fluorescence readings were measured at 30 s interval for 5 min using Enspire (Perkin Elmer) at excitation wavelength (λex) at 360 nm and emission wavelength (λem) at 460 nm. Assays were carried out as triplicates at 37 °C. Michaelis-Menten constant (Km) was calculated by graphpad prism5.0.

pEC50, pIC50: −log10 of the molar value. “Also recorded” adds a separate entry of the source. Read-outs that look alike come from different tables or passages of the source.

T1 sequence (A0A024B7W1 1417-1468): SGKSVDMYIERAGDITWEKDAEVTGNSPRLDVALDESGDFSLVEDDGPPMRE
T1 sequence (A0A024B7W1 1503-1679): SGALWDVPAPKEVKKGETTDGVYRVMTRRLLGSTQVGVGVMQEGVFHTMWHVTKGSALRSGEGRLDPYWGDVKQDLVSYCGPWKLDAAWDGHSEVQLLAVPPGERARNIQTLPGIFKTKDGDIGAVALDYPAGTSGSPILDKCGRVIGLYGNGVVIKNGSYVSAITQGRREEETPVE
T2 sequence (A0A024B7W1 1417-1468): as the sequence (A0A024B7W1 1417-1468) above
T2 sequence (A0A024B7W1 1503-1679): as the sequence (A0A024B7W1 1503-1679) above

On to `O=C(OC[C@H]1O[C@@H](OC(=O)c2cc(O)c(O)c(OC(=O)c3cc(O)c(O)c(O)c3)c2)[C@H](OC(=O)c2cc(O)c(O)c(OC(=O)c3cc(O)c(O)c(O)c3)c2)[C@@H](OC(=O)c2cc(O)c(O)c(OC(=O)c3cc(O)c(O)c(O)c3)c2)[C@@H]1OC(=O)c1cc(O)c(O)c(OC(=O)c2cc(O)c(O)c(O)c2)c1)c1cc(O)c(O)c(OC(=O)c2cc(O)c(O)c(O)c2)c1` [ZP3, tannic acid], for which, in data set [1], the “binding to ZIKVpro in Octet assay” value is reported as “direct binding” and the “Response (Octet binding assay)” value worked out at 0.1091.
For the compound `O=c1cc(-c2ccc(O)cc2)oc2cc(O)cc(O)c12` [Apigenin], in the data set with ZIKVpro (ref Roy et al.), the negative-log IC50 (pIC50) (in general, −log10 of the IC50, conventionally taken in molar units) was 4.25.
`O=c1c(O)c(-c2cc(O)c(O)c(O)c2)oc2cc(O)cc(O)c12` [Myricetin, myricetin]: the negative-log IC50 (pIC50) in the data set with ZIKVpro (ref Lim et al.) is 4.66; in the data set with ZIKVpro (ref Roy et al.) it was 5.89; in data set [2] it was 4.31.
For `O=C1c2c(O)ccc([N+](=O)[O-])c2C(=O)c2c([N+](=O)[O-])ccc(O)c21` [ARDP006], in the data set on dengue virus, the pEC50 (in general, −log10 of the EC50, conventionally taken in molar units) was 5.38. Also, on viral proteinase NS2B/3, the negative logarithm of the IC50 (pIC50) was 3.36.
Consider merbromin [ZP1], for which, in data set [1], the “binding to ZIKVpro in Octet assay” value is recorded as “direct binding” and the “Response (Octet binding assay)” value came to 1.0863. Further, in [2], the pIC50 was 5.04.
On to `O=C(OC1Cc2c(O)cc(O)cc2OC1c1cc(O)c(=O)c2c(O)c(O)cc(C3Oc4cc(O)cc(O)c4CC3OC(=O)c3cc(O)c(O)c(O)c3)c2c1)c1cc(O)c(O)c(O)c1` (stereo not shown) [ZP10, theaflavin-3,3’-digallate], for which the “ZIKV-induced CPE (cell morphology)” value in the data set with ZIKV [3] (72 hpi, ZP10 6.25 µM to 25.0 µM) was “attenuated to a large extent”. Further, the negative-log EC50 (pEC50) in the data set with ZIKV [3] (Zika virus, Vero C1008, MOI 0.05, CCK-8 read-out, read-out: EC50 of inhibition of ZIKV replication (CPE protection)) was 5.12. Besides, the “viral protein expression (NS3 and envelope)” value in the data set on ZIKV [4] is reported as “considerably reduces”. Moreover, the “viral RNA copy numbers” value in the data set with ZIKV [5] was “markedly reduced”. In data set [6], the “cleavage processing of polyprotein precursor (PP)” value was “impaired cleavage processing of PP”. The NS3 protein expression result with ZIKV [7] was “markedly reduced”. The “effect on ZIKV entry / replication when added before or after virus adsorption (0–1 hpi)” value with ZIKV [8] is “no effect of ZP10 on ZIKV entry”. Further, the “cytotoxicity (cell viability, CCK-8)” value in the data set on Vero E6 cells was “minor cytotoxicity up to 40 μM; also recorded: low cytotoxicity”.
Turning to “ZIKV NS2B-NS3 protease (ZIKVpro) (Zika virus ZIKV/H. sapiens/FrenchPolynesia/10087PF/2013)”, in [9], the Km (commonly the substrate concentration at which the rate is half of its maximum) is 30.51 µM.
With `CCCCCCCCCCCCCc1cccc(O)c1C(=O)O` [ZP9], the “Response (Octet binding assay)” value in [1] is given as -0.0005. Further, in data set [2], the pIC50 was 5.85 and the inhibition (in general, the percentage by which the read-out fell short of the control) at 20 µM is 82.2%.
Take `Cc1cc2c(C(C)C)c(O)c(O)c(C=O)c2c(O)c1-c1c(C)cc2c(C(C)C)c(O)c(O)c(C=O)c2c1O` [ZP4]: the “Response (Octet binding assay)” value in data set [1] was -0.046. Besides, the inhibition at 20 µM in [2] came out at 59.7%.

Values taken from publication PMC7609463 (Frontiers in Pharmacology, 2020).
